Square brackets hold non-standard residues; d marks the D form. Peptide text beside a SMILES is read from it. Bip = N[C@@H](Cc1ccc(-c2ccccc2)cc1)C(=O)O; dPhe(4-I) = N[C@H](Cc1ccc(I)cc1)C(=O)O; 2Nal = N[C@@H](Cc1ccc2ccccc2c1)C(=O)O; d2Nal = N[C@H](Cc1ccc2ccccc2c1)C(=O)O; Bta = N[C@@H](Cc1csc2ccccc12)C(=O)O; Tic = O=C(O)[C@@H]1Cc2ccccc2CN1
Experiments:
[1] = target: T1, mMC4R (Mus musculus, UniProt P56450); details: for mMC4R Antagonist pA2 ± SEM: Table 1, Schild analysis, pA2 = -Log(Ki)
[2] = target: T2, mMC3R (Mus musculus, UniProt P33033); details: Table 1; Schild analysis, pA2 = -Log(Ki); Full Agonist = full dose-response, No Activity = no shift in EC50
T2 sequence (P33033 whole entry): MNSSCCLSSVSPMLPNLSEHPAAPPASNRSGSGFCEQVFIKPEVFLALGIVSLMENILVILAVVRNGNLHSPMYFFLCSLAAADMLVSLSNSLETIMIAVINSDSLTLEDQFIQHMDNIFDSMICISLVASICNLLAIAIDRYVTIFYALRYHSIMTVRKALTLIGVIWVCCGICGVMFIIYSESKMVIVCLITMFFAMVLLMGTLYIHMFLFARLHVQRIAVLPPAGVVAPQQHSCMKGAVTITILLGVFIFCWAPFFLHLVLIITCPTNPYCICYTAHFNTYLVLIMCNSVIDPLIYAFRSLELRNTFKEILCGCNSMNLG

[3] = target: T1, mMC4R; test: AlphaScreen cAMP agonist assay at mMC4R; details: read-out: mMC4R Agonist, percent of the NDP-MSH maximal positive control
[4] = target: T2, mMC3R; test: AlphaScreen cAMP agonist assay at mMC3R; details: Table 1; @ 100 μM
[5] = target: mMC5R (Mus musculus, UniProt P41149); test: AlphaScreen cAMP agonist assay at mMC5R; details: read-out: percent of the NDP-MSH maximal positive control, Table 2
mMC5R, sequence (P41149 whole entry): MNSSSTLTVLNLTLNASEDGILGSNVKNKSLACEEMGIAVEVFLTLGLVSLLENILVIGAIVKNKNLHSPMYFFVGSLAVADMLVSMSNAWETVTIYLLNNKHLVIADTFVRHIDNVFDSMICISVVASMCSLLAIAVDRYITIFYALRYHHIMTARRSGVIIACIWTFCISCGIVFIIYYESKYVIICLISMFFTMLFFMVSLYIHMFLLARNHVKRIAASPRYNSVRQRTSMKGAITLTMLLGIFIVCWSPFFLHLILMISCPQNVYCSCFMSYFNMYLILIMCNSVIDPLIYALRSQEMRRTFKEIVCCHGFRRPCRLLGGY

T1 sequence (P56450 whole entry): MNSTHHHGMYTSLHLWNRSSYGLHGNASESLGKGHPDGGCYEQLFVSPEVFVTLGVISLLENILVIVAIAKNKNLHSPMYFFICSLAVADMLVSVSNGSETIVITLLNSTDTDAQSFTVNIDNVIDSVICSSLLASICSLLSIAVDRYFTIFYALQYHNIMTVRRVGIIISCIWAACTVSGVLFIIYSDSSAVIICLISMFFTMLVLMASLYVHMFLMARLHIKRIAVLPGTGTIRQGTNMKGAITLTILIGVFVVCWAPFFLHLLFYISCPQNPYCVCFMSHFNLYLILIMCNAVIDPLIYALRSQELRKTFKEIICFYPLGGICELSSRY

SMILES: CC(=O)N[C@@H](Cc1ccc(-c2ccccc2)cc1)C(=O)N[C@@H](CCCNC(=N)N)C(=O)N[C@H](Cc1ccc(I)cc1)C(=O)N[C@@H](Cc1ccc(-c2ccccc2)cc1)C(N)=O [SKY4-48-4, Ac-Bip-Arg-(pI)DPhe-Bip-NH2] (Ac-[Bip]R[dPhe(4-I)][Bip]-NH2)
- mMC4R Antagonist pA2 ± SEM [1]: No Activity
- mMC3R Antagonist pA2 ± SEM [2]: No Activity
- activation at 100 µM [3]: 24%

SMILES: CC(=O)N[C@@H](Cc1ccc2ccccc2c1)C(=O)N[C@@H](CCCNC(=N)N)C(=O)N[C@H](Cc1ccc(I)cc1)C(=O)N[C@@H](Cc1ccc(-c2ccccc2)cc1)C(N)=O [SKY4-48-8, Ac-Nal(2′)-Arg-(pI)DPhe-Bip-NH2] (Ac-[2Nal]R[dPhe(4-I)][Bip]-NH2)
- mMC4R Antagonist pA2 ± SEM [1]: Full Agonist
- mMC3R Antagonist pA2 ± SEM [2]: Full Agonist

SMILES: CC(=O)N[C@@H](Cc1ccc(-c2ccccc2)cc1)C(=O)N[C@@H](CCCNC(=N)N)C(=O)N[C@H](Cc1ccc(I)cc1)C(=O)N[C@@H](Cc1csc2ccccc12)C(N)=O [SKY4-48-12, Ac-Bip-Arg-(pI)DPhe-3Bal-NH2] (Ac-[Bip]R[dPhe(4-I)][Bta]-NH2)
- mMC4R Antagonist pA2 ± SEM [1]: No Activity
- mMC3R Antagonist pA2 ± SEM [2]: Full Agonist

SMILES: CC(=O)N[C@@H](Cc1csc2ccccc12)C(=O)N[C@@H](CCCNC(=N)N)C(=O)N[C@H](Cc1ccc(I)cc1)C(=O)N[C@@H](Cc1csc2ccccc12)C(N)=O [SKY4-48-13, Ac-3Bal-Arg-(pI)DPhe-3Bal-NH2] (Ac-[Bta]R[dPhe(4-I)][Bta]-NH2)
- mMC3R Antagonist pA2 ± SEM [2]: Full Agonist

SMILES: CC(=O)N[C@@H](Cc1ccc2ccccc2c1)C(=O)N[C@@H](CCCNC(=N)N)C(=O)N[C@H](Cc1ccc(I)cc1)C(=O)N[C@@H](Cc1csc2ccccc12)C(N)=O [SKY4-48-16, Ac-Nal(2′)-Arg-(pI)DPhe-3Bal-NH2] (Ac-[2Nal]R[dPhe(4-I)][Bta]-NH2)
- mMC3R Antagonist pA2 ± SEM [2]: Full Agonist

SMILES: CC(=O)N[C@H](Cc1ccc2ccccc2c1)C(=O)N[C@@H](CCCNC(=N)N)C(=O)N[C@H](Cc1ccc(I)cc1)C(=O)N[C@@H](Cc1csc2ccccc12)C(N)=O [SKY4-48-17, Ac-DNal(2′)-Arg-(pI)DPhe-3Bal-NH2] (Ac-[d2Nal]R[dPhe(4-I)][Bta]-NH2)
- mMC3R Antagonist pA2 ± SEM [2]: Full Agonist
- activation at 100 µM [3]: 45%

SMILES: CC(=O)N[C@@H](Cc1ccc(-c2ccccc2)cc1)C(=O)N[C@@H](CCCNC(=N)N)C(=O)N[C@H](Cc1ccc(I)cc1)C(=O)N1Cc2ccccc2C[C@H]1C(N)=O [SKY4-48-20, Ac-Bip-Arg-(pI)DPhe-Tic-NH2] (Ac-[Bip]R[dPhe(4-I)][Tic]-NH2)
- mMC3R Antagonist pA2 ± SEM [2]: Full Agonist

SMILES: CC(=O)N[C@@H](Cc1csc2ccccc12)C(=O)N[C@@H](CCCNC(=N)N)C(=O)N[C@H](Cc1ccc(I)cc1)C(=O)N1Cc2ccccc2C[C@H]1C(N)=O [SKY4-48-21, Ac-3Bal-Arg-(pI)DPhe-Tic-NH2] (Ac-[Bta]R[dPhe(4-I)][Tic]-NH2)
- mMC3R Antagonist pA2 ± SEM [2]: Full Agonist
- activation at 100 µM [3]: 37%

SMILES: CC(=O)N[C@@H](Cc1ccc2ccccc2c1)C(=O)N[C@@H](CCCNC(=N)N)C(=O)N[C@H](Cc1ccc(I)cc1)C(=O)N1Cc2ccccc2C[C@H]1C(N)=O [SKY4-48-24, Ac-Nal(2′)-Arg-(pI)DPhe-Tic-NH2] (Ac-[2Nal]R[dPhe(4-I)][Tic]-NH2)
- mMC3R Antagonist pA2 ± SEM [2]: Full Agonist
- activation at 100 µM [3]: 33%

SMILES: CC(=O)N[C@@H](Cc1ccc(-c2ccccc2)cc1)C(=O)N[C@@H](CCCNC(=N)N)C(=O)N[C@H](Cc1ccc(I)cc1)C(=O)N[C@@H](Cc1ccccc1)C(N)=O [SKY4-48-28, Ac-Bip-Arg-(pI)DPhe-Phe-NH2] (Ac-[Bip]R[dPhe(4-I)]F-NH2)
- mMC3R Agonist, percent of the NDP-MSH maximal positive control [4]: 77% @ 100 μM
- activation at 100 µM [5]: 69%
- mMC3R Antagonist pA2 ± SEM [2]: No Activity

SMILES: CC(=O)N1Cc2ccccc2C[C@H]1C(=O)N[C@@H](CCCNC(=N)N)C(=O)N[C@H](Cc1ccc(I)cc1)C(=O)N[C@@H](Cc1ccccc1)C(N)=O [SKY4-48-30, Ac-Tic-Arg-(pI)DPhe-Phe-NH2] (Ac-[Tic]R[dPhe(4-I)]F-NH2)
- mMC4R Antagonist pA2 ± SEM [1]: No Activity
- activation at 100 µM [5]: 21%
- mMC3R Antagonist pA2 ± SEM [2]: No Activity

SMILES: CC(=O)N[C@@H](Cc1ccccc1)C(=O)N[C@@H](CCCNC(=N)N)C(=O)N[C@H](Cc1ccc(I)cc1)C(=O)N[C@@H](Cc1ccccc1)C(N)=O [SKY4-48-31, Ac-Phe-Arg-(pI)DPhe-Phe-NH2] (Ac-FR[dPhe(4-I)]F-NH2)
- mMC3R Agonist, percent of the NDP-MSH maximal positive control [4]: 50% @ 100 μM
- mMC4R Antagonist pA2 ± SEM [1]: No Activity
- activation at 100 µM [5]: 52%
- mMC3R Antagonist pA2 ± SEM [2]: No Activity

SMILES: CC(=O)N[C@@H](Cc1ccc2ccccc2c1)C(=O)N[C@@H](CCCNC(=N)N)C(=O)N[C@H](Cc1ccc(I)cc1)C(=O)N[C@@H](Cc1ccccc1)C(N)=O [SKY4-48-32, Ac-Nal(2′)-Arg-(pI)DPhe-Phe-NH2] (Ac-[2Nal]R[dPhe(4-I)]F-NH2)
- mMC3R Agonist, percent of the NDP-MSH maximal positive control [4]: 42% @ 100 μM
- mMC4R Antagonist pA2 ± SEM [1]: No Activity
- activation at 100 µM [5]: 49%
- mMC3R Antagonist pA2 ± SEM [2]: No Activity

SMILES: CC(=O)N[C@H](Cc1ccc2ccccc2c1)C(=O)N[C@@H](CCCNC(=N)N)C(=O)N[C@H](Cc1ccc(I)cc1)C(=O)N[C@@H](Cc1ccccc1)C(N)=O [SKY4-48-33, Ac-DNal(2′)-Arg-(pI)DPhe-Phe-NH2] (Ac-[d2Nal]R[dPhe(4-I)]F-NH2)
- antagonist pA2 at the mMC4R [1]: 6.9

SMILES: CC(=O)N[C@@H](CCCNC(=N)N)C(=O)N[C@@H](CCCNC(=N)N)C(=O)N[C@H](Cc1ccc(I)cc1)C(=O)N[C@@H](Cc1ccc2ccccc2c1)C(N)=O [SKY4-48-34, Ac-Arg-Arg-(pI)DPhe-Nal(2′)-NH2]
- mMC3R Agonist, percent of the NDP-MSH maximal positive control [4]: 51% @ 100 μM

SMILES: CC(=O)N[C@@H](Cc1c[nH]cn1)C(=O)N[C@@H](CCCNC(=N)N)C(=O)N[C@H](Cc1ccc(I)cc1)C(=O)N[C@@H](Cc1ccc2ccccc2c1)C(N)=O [SKY4-48-35, Ac-His-Arg-(pI)DPhe-Nal(2′)-NH2] (Ac-HR[dPhe(4-I)][2Nal]-NH2)
- mMC3R Agonist, percent of the NDP-MSH maximal positive control [4]: 57% @ 100 μM
- activation at 100 µM [3]: 35%

SMILES: CC(=O)N[C@@H](Cc1csc2ccccc12)C(=O)N[C@@H](CCCNC(=N)N)C(=O)N[C@H](Cc1ccc(I)cc1)C(=O)N[C@@H](Cc1ccc2ccccc2c1)C(N)=O [SKY4-48-37, Ac-3Bal-Arg-(pI)DPhe-Nal(2′)-NH2] (Ac-[Bta]R[dPhe(4-I)][2Nal]-NH2)
- mMC4R Antagonist pA2 ± SEM [1]: No Activity
- activation at 100 µM [5]: 50%
- mMC3R Antagonist pA2 ± SEM [2]: No Activity

SMILES: CC(=O)N[C@@H](Cc1ccccc1)C(=O)N[C@@H](CCCNC(=N)N)C(=O)N[C@H](Cc1ccc(I)cc1)C(=O)N[C@@H](Cc1ccc2ccccc2c1)C(N)=O [SKY4-48-39, Ac-Phe-Arg-(pI)DPhe-Nal(2′)-NH2] (Ac-FR[dPhe(4-I)][2Nal]-NH2)
- mMC3R Agonist, percent of the NDP-MSH maximal positive control [4]: 44% @ 100 μM
- activation at 100 µM [5]: 61%
- mMC3R Antagonist pA2 ± SEM [2]: No Activity

SMILES: CC(=O)N[C@@H](Cc1ccc2ccccc2c1)C(=O)N[C@@H](CCCNC(=N)N)C(=O)N[C@H](Cc1ccc(I)cc1)C(=O)N[C@@H](Cc1ccc2ccccc2c1)C(N)=O [SKY4-48-40, Ac-Nal(2′)-Arg-(pI)DPhe-Nal(2′)-NH2] (Ac-[2Nal]R[dPhe(4-I)][2Nal]-NH2)
- mMC3R Agonist, percent of the NDP-MSH maximal positive control [4]: 39% @ 100 μM
- mMC4R Antagonist pA2 ± SEM [1]: No Activity
- activation at 100 µM [5]: 45%
- mMC3R Antagonist pA2 ± SEM [2]: No Activity

SMILES: CC(=O)N[C@@H](Cc1ccc(-c2ccccc2)cc1)C(=O)N[C@@H](CCCNC(=N)N)C(=O)N[C@H](Cc1ccc(I)cc1)C(=O)N[C@H](Cc1ccc2ccccc2c1)C(N)=O [SKY4-48-44, Ac-Bip-Arg-(pI)DPhe-DNal(2′)-NH2] (Ac-[Bip]R[dPhe(4-I)][d2Nal]-NH2)
- mMC3R Agonist, percent of the NDP-MSH maximal positive control [4]: 32% @ 100 μM
- mMC4R Antagonist pA2 ± SEM [1]: No Activity
- activation at 100 µM [5]: 55%
- mMC3R Antagonist pA2 ± SEM [2]: No Activity

SMILES: CC(=O)N[C@@H](Cc1ccccc1)C(=O)N[C@@H](CCCNC(=N)N)C(=O)N[C@H](Cc1ccc(I)cc1)C(=O)N[C@H](Cc1ccc2ccccc2c1)C(N)=O [SKY4-48-47, Ac-Phe-Arg-(pI)DPhe-DNal(2′)-NH2] (Ac-FR[dPhe(4-I)][d2Nal]-NH2)
- mMC3R Agonist, percent of the NDP-MSH maximal positive control [4]: 22% @ 100 μM
- activation at 100 µM [5]: 39%
- mMC3R Antagonist pA2 ± SEM [2]: No Activity

SMILES: CC(=O)N[C@H](Cc1ccc2ccccc2c1)C(=O)N[C@@H](CCCNC(=N)N)C(=O)N[C@H](Cc1ccc(I)cc1)C(=O)N[C@@H](Cc1ccc(-c2ccccc2)cc1)C(N)=O [SKY5-146-2, Ac-DNal(2′)-Arg-(pI)DPhe-Bip-NH2] (Ac-[d2Nal]R[dPhe(4-I)][Bip]-NH2)
- mMC3R Agonist, percent of the NDP-MSH maximal positive control [4]: 30% @ 100 μM
- antagonist pA2 at the mMC4R [1]: 6.6
- activation at 100 µM [3]: 42%

SMILES: CC(=O)N[C@@H](Cc1c[nH]cn1)C(=O)N[C@@H](CCCNC(=N)N)C(=O)N[C@H](Cc1ccc(I)cc1)C(=O)N[C@@H](Cc1ccccc1)C(N)=O [SKY5-146-3, Ac-His-Arg-(pI)DPhe-Phe-NH2] (Ac-HR[dPhe(4-I)]F-NH2)
- mMC3R Antagonist pA2 ± SEM [2]: Full Agonist

SMILES: CC(=O)N[C@@H](Cc1csc2ccccc12)C(=O)N[C@@H](CCCNC(=N)N)C(=O)N[C@H](Cc1ccc(I)cc1)C(=O)N[C@@H](Cc1ccccc1)C(N)=O [SKY5-146-4, Ac-3Bal-Arg-(pI)DPhe-Phe-NH2] (Ac-[Bta]R[dPhe(4-I)]F-NH2)
- mMC3R Agonist, percent of the NDP-MSH maximal positive control [4]: 37% @ 100 μM
- mMC4R Antagonist pA2 ± SEM [1]: No Activity
- activation at 100 µM [5]: 35%
- mMC3R Antagonist pA2 ± SEM [2]: No Activity

SMILES: CC(=O)N1Cc2ccccc2C[C@H]1C(=O)N[C@@H](CCCNC(=N)N)C(=O)N[C@H](Cc1ccc(I)cc1)C(=O)N1Cc2ccccc2C[C@H]1C(N)=O [SKY6-24-1, Ac-Tic-Arg-(pI)DPhe-Tic-NH2] (Ac-[Tic]R[dPhe(4-I)][Tic]-NH2)
- mMC3R Antagonist pA2 ± SEM [2]: Full Agonist
- activation at 100 µM [3]: 36%

Source: patent US10899793B2, “Melanocortin ligands and methods of use thereof” (priority 2016, dated 2021)
